Experiments:
[1] = compound: C1CC2=C(C1)C=C(C=C2)OC3=NC(=C4C(=N3)N(C=N4)CC5=CC=C(C=C5)C6=CC=CC=C6)N[C@@H](CC7=CC=CC=C7)CO [QS11] + O=C(CCCCCCC(=O)Nc1ccccc1)NO [Vorinostat] (partner 1 µM); assay: relative viability (nuclei count vs DMSO), 5 days (fraction); higher = more cells survive
Summary of the method: (§1)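 Cells from lung cancer lines were seeded into 1536-well plates and, one day later, dosed by pin tool. Treatments were either a single drug or a fixed dose of an anchor drug with five library-drug doses (not always all listed) in √10 steps. After 5 days, nuclei were stained in a one-step fixation (final 0.05% Triton X-100, 1% formaldehyde, 1 ug/ml Hoechst) and counted on 4× images, and relative viability is the treated-to-vehicle nuclei ratio, as the median of duplicate plates.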

[2] = compound: CC1=C(C=C(C=C1)NC(=O)C2=CC(=CC=C2)C(C)(C)C#N)NC3=CC4=C(C=C3)N=CN(C4=O)C [AZ628] + O=C(CCCCCCC(=O)Nc1ccccc1)NO [Vorinostat] (partner 1 µM); assay: as above
Summary of the method: as §1

| Cell Line | relative viability ([1]; first compound 0.08 µM) | relative viability ([1]; first compound 0.253 µM) | relative viability ([1]; first compound 0.8 µM) | relative viability ([1]; first compound 2.53 µM) | relative viability ([1]; first compound 8 µM) | relative viability ([2]; first compound 0.08 µM) | relative viability ([2]; first compound 0.253 µM) | relative viability ([2]; first compound 0.8 µM) | relative viability ([2]; first compound 2.53 µM) | relative viability ([2]; first compound 8 µM) |
| --- | --- | --- | --- | --- | --- | --- | --- | --- | --- | --- |
| NCI-H1975 | 0.669 | 0.783 | 0.752 | 0.795 | 0.654 | 0.62 | 0.668 | 0.679 | 0.658 | 0.42 |
| BEN | 0.568 | 0.528 | 0.528 | 0.688 | 0.647 | 0.615 | 0.513 | 0.571 | 0.557 | 0.589 |
| NCI-H1437 | 0.894 | 0.751 | 0.616 | 0.609 | 0.39 | 0.834 | 0.765 | 0.752 | 0.829 | 0.776 |
| NCI-H1734 | 0.79 | 0.82 | 0.779 | 0.792 | 0.672 | 0.923 | 0.773 | 0.761 | 0.772 | 0.463 |
| NCI-H596 | 0.52 | 0.51 | 0.501 | 0.623 | 0.593 | 0.559 | 0.594 | 0.69 | 0.686 | 0.682 |
| LOU-NH91 | 0.896 | 0.858 | 0.871 | 0.936 | 0.916 | 1 | 0.911 | 0.904 | 0.794 | 0.675 |
| NCI-H2342 | 0.759 | 0.733 | 0.947 | 0.669 | 0.746 | 0.928 | 0.692 | 0.81 | 0.753 | 0.825 |
| NCI-H522 | 0.799 | 0.871 | 0.766 | 1 | 0.999 | 0.924 | 0.891 | 0.95 | 0.82 | 0.695 |
| SK-MES-1 | 1.25 | 1.01 | 0.987 | 1.23 | 1.08 | 1.07 | 1.18 | 1.04 | 1.1 | 0.572 |
| UMC-11 | 0.385 | 0.373 | 0.462 | 0.37 | 0.459 | 0.442 | 0.336 | 0.361 | 0.328 | 0.36 |
| LK-2 | 0.282 | 0.27 | 0.467 | 0.323 | 0.28 | 0.272 | 0.244 | 0.396 | 0.275 | 0.222 |
| CAL-12T | 0.867 | 0.915 | 0.713 | 0.983 | 0.704 | 0.802 | 0.634 | 0.643 | 0.522 | 0.417 |
| PC-3 [JPC-3] | – | 0.722 | 0.709 | 0.72 | 0.697 | 1.15 | 0.7 | 0.891 | 0.793 | 0.709 |
| NCI-H1651 | 0.555 | 0.518 | 0.527 | 0.571 | 0.564 | 0.584 | 0.491 | 0.573 | 0.559 | 0.561 |
| NCI-H650 | 0.496 | 0.414 | 0.333 | 0.416 | 0.45 | 0.454 | 0.63 | 0.554 | 0.673 | 0.44 |
| HOP-62 | 0.556 | 0.564 | 0.533 | 0.416 | 0.447 | 0.641 | 0.701 | 0.641 | 0.432 | 0.289 |
| LC-2-ad | 0.748 | 0.739 | 0.531 | 0.671 | 0.74 | 0.78 | 0.865 | 0.796 | 0.74 | 0.656 |

| Cell Line | relative viability ([1]; first compound 0.08 µM) | relative viability ([1]; first compound 0.253 µM) | relative viability ([1]; first compound 0.8 µM) | relative viability ([1]; first compound 2.53 µM) | relative viability ([1]; first compound 8 µM) | relative viability ([2]; first compound 0.08 µM) | relative viability ([2]; first compound 0.253 µM) | relative viability ([2]; first compound 0.8 µM) | relative viability ([2]; first compound 2.53 µM) | relative viability ([2]; first compound 8 µM) |
| --- | --- | --- | --- | --- | --- | --- | --- | --- | --- | --- |
| EPLC-272H | 0.371 | 0.55 | 0.442 | 0.479 | 0.276 | 0.557 | 0.518 | 0.4 | 0.332 | 0.274 |
| SW 900 | 0.295 | 0.378 | 0.452 | 0.457 | 0.348 | 0.622 | 0.463 | 0.573 | 0.426 | 0.534 |
| HCC-44 | 1.14 | 1.05 | 0.557 | 0.98 | 1.01 | 1.16 | 1.17 | 1.15 | 1.02 | 0.491 |
| NCI-H441 | 0.855 | 0.857 | 0.658 | 0.53 | 0.717 | 0.782 | 0.749 | 0.67 | 0.673 | 0.68 |
| LU99A | 0.432 | 0.438 | 0.51 | 0.515 | 0.464 | 0.511 | 0.473 | 0.496 | 0.52 | 0.33 |
| NCI-H661 | 0.786 | 0.805 | 0.632 | 0.804 | 0.672 | 0.831 | 0.916 | 0.818 | 0.778 | 0.743 |
| PC-14 | – | 0.839 | 0.695 | 0.808 | 0.69 | 0.762 | 0.745 | 0.632 | 0.677 | 0.232 |
| SK-LU-1 | 0.786 | 0.849 | 0.604 | 0.572 | 0.614 | 0.595 | 0.896 | 0.726 | 0.758 | 0.611 |
| NCI-H2085 | 0.743 | 0.72 | 0.699 | 0.912 | 0.806 | 0.845 | 0.788 | 0.891 | 0.826 | 0.736 |
| NCI-H1395 | 0.649 | 0.752 | 0.772 | 0.814 | 0.823 | 0.936 | 0.61 | 0.665 | 0.62 | 0.607 |
| NCI-H1666 | 1.04 | 1.09 | 0.924 | 0.713 | 0.73 | 1.07 | 0.953 | 0.995 | 0.764 | 0.916 |
| IA-LM | 0.926 | 1.13 | 0.674 | 0.806 | 0.88 | 1.01 | 0.962 | 0.657 | 0.722 | 0.21 |
| NCI-H1648 | 0.506 | 0.666 | 0.517 | 0.505 | 0.577 | 0.544 | 0.372 | 0.333 | 0.375 | 0.323 |
| NCI-H1650 | 0.463 | 0.446 | 0.51 | 0.476 | 0.389 | 0.733 | 0.763 | 0.582 | 0.505 | 0.562 |
| NCI-H647 | 0.623 | 0.801 | 0.62 | 0.387 | 0.356 | 0.54 | 0.845 | 0.524 | 0.833 | 0.488 |
| A-427 | 0.902 | 0.844 | – | 0.877 | 0.844 | 1.02 | 0.811 | 0.82 | 0.787 | 0.437 |

From the supplement of paper PMC10307832
